Assay results from article PMC11249953, “c-KIT inhibitors reduce pathology and improve behavior in the Tg(SwDI) model of Alzheimer’s disease” (Life Science Alliance, 2024).
Values joined by “and” are separate entries in the source; they are usually repeats but may differ in a detail not shown here. Equal entries are not always repeated.

Legend:
ULK3 = biological target: T1, ULK3 (Homo sapiens, UniProt Q6PHR2); assay: KINOMEscan competition binding, ULK3; conditions: 10 µM compound
T1 construct: DNA label for qPCR read-out (T7 phage fusion or DNA tag); purchased Eurofins DiscoverX Corporation; host or cells: T7 phage in E. coli (BL21-derived) or HEK-293
T1 sequence (Q6PHR2 1-472): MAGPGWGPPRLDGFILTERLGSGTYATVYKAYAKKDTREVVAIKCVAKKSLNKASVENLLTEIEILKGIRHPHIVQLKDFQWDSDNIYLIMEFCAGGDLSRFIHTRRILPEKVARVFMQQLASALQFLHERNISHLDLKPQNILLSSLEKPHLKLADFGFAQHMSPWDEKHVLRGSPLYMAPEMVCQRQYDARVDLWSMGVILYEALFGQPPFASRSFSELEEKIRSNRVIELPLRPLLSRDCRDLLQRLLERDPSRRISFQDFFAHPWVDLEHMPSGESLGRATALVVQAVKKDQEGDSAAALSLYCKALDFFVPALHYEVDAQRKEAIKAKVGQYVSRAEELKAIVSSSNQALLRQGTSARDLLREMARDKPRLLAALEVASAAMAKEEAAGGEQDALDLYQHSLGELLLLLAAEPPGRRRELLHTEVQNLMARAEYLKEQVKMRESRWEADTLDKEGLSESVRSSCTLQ
Method: (§1) The KINOMEscan screening platform (Eurofins DiscoverX Corporation) was performed using active site-directed competition binding assay to quantitatively measure interactions between BK40143 and BK40197 and more than 450 human kinases and disease relevant mutant variants. […] Screening “hits” are identified by measuring the amount of kinase captured in test (BK40143 and BK40197) versus control samples by using a quantitative and ultra-sensitive qRT-PCR method that detects the associated DNA label. BK40143 and BK40197 were screened at 10 µM concentration, and results for primary screen binding interactions were reported as “% Ctrl” (POC), where lower numbers indicate stronger hits and calculated as follows: [test compound signal−positive control signal/negative control signal−positive control signal]×100
(§2) negative control = DMSO (100% Ctrl)
(§3) positive control = control compound (0% Ctrl)
(§4) Based on screening data from of profiled compounds, a proportional relationship between primary screening results and corresponding compound/target affinities can be described as binding constants (Kd values) for the indicated ranges of POC values with tighter binding (higher affinity) interactions associated with lower POC values and weaker binding (lower affinity) associated with higher POC values. Briefly, kinase-tagged T7 phage strains were grown in parallel in 24-well blocks in an E. coli host derived from the BL21 strain. E. coli were grown to log-phase and infected with T7 phage from a frozen stock (multiplicity of infection = 0.4) and incubated with shaking at 32°C until lysis (90–150 min). The lysates were centrifuged (6,000g) and filtered (0.2 μm) to remove cell debris. The remaining kinases were produced in HEK-293 cells and subsequently tagged with DNA for qRT-PCR detection. Streptavidin-coated magnetic beads were treated with biotinylated small molecule ligands for 30 min at RT to generate affinity resins for kinase assays. The liganded beads were blocked with excess biotin and washed with blocking buffer (1% BSA, 0.05% Tween 20, 1 mM DTT; SeaBlock [Pierce]) to remove unbound ligand and to reduce non-specific phage binding. Binding reactions were assembled by combining kinases, liganded affinity beads, and test compounds in 1x binding buffer (20% 0.17x PBS, 0.05% Tween 20, 6 mM DTT; SeaBlock). Test compounds were prepared as 100x stocks in 100% DMSO and directly diluted into the assay. All reactions were performed in polypropylene 384-well plates in a final volume of 0.02 ml. The assay plates were incubated at RT with shaking for 1 h and the affinity beads were washed with wash buffer (1x PBS, 0.05% Tween 20). […] The kinase concentration in the eluates was measured by qRT-PCR.

CSF1R = biological target: T2, CSF1R (Homo sapiens, UniProt P07333); assay: KINOMEscan competition binding, CSF1R; conditions: 10 µM compound
T2 construct: DNA label for qPCR read-out (T7 phage fusion or DNA tag); purchased Eurofins DiscoverX Corporation; host or cells: T7 phage in E. coli (BL21-derived) or HEK-293
T2 sequence (P07333 20-972): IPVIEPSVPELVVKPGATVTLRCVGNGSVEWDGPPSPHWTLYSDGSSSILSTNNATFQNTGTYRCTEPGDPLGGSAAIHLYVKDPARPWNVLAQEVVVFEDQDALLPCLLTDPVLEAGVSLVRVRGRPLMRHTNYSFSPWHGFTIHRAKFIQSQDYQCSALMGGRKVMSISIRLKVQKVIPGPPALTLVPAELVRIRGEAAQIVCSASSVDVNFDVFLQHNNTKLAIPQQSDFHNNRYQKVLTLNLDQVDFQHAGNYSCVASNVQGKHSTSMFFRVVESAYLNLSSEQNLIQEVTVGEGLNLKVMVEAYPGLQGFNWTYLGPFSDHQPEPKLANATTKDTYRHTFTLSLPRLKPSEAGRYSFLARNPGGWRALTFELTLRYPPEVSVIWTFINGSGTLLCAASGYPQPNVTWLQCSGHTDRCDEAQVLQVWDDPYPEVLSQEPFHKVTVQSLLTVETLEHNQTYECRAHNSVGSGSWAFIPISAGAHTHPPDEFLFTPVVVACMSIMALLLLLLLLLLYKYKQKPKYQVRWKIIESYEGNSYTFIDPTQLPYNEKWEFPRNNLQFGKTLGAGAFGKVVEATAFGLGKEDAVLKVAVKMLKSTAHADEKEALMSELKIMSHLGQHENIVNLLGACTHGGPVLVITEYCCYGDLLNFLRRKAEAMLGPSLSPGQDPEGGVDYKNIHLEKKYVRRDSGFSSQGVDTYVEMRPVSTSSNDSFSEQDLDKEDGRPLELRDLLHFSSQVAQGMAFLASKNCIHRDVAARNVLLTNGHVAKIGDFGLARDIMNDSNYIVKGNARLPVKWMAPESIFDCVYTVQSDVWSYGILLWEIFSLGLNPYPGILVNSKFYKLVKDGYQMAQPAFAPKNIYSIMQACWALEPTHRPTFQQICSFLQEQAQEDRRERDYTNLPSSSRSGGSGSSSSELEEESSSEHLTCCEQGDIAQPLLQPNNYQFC
Method: as §1, §2, §3, §4

PIKFYVE = biological target: T3, PIKFYVE (Homo sapiens, UniProt Q9Y2I7); assay: KINOMEscan competition binding, PIKFYVE; conditions: 10 µM compound
T3 construct: DNA label for qPCR read-out (T7 phage fusion or DNA tag); purchased Eurofins DiscoverX Corporation; host or cells: T7 phage in E. coli (BL21-derived) or HEK-293
T3 sequence (Q9Y2I7 whole entry, the tested form may be a part): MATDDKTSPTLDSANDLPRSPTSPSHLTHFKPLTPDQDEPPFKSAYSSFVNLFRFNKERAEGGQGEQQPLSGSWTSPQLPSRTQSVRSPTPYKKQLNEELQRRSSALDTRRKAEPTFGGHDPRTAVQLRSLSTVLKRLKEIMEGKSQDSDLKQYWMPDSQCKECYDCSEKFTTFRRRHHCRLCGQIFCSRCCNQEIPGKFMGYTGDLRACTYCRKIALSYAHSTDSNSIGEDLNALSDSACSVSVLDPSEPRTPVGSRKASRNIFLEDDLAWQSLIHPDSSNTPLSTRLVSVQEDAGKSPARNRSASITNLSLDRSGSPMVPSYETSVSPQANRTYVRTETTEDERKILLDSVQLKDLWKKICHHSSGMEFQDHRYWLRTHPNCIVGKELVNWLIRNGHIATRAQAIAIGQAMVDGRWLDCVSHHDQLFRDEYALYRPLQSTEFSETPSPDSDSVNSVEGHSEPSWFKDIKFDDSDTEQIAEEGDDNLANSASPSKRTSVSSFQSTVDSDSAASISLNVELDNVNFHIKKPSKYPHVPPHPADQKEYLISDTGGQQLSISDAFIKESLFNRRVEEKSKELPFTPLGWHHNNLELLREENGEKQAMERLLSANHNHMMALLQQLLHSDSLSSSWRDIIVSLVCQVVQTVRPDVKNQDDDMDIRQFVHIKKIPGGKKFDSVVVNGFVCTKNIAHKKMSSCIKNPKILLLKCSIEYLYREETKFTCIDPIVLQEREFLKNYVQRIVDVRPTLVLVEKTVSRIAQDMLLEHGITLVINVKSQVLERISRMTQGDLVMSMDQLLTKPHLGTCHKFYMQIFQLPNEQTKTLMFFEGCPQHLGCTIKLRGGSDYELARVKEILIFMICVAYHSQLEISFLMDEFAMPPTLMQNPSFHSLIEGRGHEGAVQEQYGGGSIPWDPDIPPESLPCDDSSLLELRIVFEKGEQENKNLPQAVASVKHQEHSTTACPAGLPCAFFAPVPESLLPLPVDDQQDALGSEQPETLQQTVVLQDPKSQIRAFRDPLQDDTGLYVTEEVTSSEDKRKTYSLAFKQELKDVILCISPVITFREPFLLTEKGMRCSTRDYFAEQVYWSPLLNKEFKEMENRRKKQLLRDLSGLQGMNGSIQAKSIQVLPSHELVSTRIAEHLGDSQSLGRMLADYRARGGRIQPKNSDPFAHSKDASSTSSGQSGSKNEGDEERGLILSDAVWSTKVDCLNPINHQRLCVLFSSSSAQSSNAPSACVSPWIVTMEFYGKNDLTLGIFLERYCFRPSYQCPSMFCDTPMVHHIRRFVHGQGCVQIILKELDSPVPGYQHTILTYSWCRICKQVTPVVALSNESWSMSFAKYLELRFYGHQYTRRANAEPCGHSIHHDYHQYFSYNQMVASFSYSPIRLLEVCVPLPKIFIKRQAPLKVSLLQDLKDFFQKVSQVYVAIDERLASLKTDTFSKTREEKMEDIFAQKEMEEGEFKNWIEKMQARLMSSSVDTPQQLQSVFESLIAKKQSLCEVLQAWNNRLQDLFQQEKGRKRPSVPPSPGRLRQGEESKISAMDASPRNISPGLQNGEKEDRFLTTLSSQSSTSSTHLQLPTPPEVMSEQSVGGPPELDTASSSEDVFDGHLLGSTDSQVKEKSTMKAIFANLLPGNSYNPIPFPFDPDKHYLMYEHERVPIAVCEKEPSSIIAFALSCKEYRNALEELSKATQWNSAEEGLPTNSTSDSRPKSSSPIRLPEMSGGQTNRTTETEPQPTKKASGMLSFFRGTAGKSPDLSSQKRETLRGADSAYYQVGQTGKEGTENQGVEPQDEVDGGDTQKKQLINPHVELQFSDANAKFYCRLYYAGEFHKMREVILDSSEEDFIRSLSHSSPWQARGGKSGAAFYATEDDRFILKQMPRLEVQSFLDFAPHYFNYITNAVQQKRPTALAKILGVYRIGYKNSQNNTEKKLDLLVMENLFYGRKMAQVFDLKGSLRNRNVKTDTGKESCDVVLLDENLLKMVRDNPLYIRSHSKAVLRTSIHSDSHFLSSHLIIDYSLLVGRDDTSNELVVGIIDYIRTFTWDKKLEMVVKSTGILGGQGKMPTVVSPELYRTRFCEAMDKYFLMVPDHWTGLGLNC
Method: as §1, §2, §3, §4

mice = assay: Elevated plus maze, source data sheets EPM (mouse line not given); format: in vivo
Method: The elevated plus maze was performed using a standard set up, with two enclosed arms and two open arms. Mice were placed at the intersection of the open and closed arms and allowed to freely explore for 5 min, two times. Time spent in the open and closed arms and number of entries into the open and closed arms were recorded.

[1] = Totals (Trial 1 + Trial 2), individual animals, listed as 197
[2] = Trial 1, individual animals, listed as 197
[3] = Trial 2, individual animals, listed as 197
[4] = elevated plus maze, trial 1 + trial 2, one value per mouse, listed as 197
[5] = elevated plus maze, trial 1, one value per mouse, listed as 197
[6] = elevated plus maze, trial 2, one value per mouse, listed as 197

## Cc1cccc(-c2cc3nccc(N4CCOCC4)c3s2)c1 [BK40197]
ULK3
  inhibition at 10 µM: 93.9%
ULK3; lower = stronger binding, read-out: ULK3 %Ctrl @ 10000nM (POC)
  remaining binding at 10 µM: 6.1%
CSF1R
  inhibition at 10 µM: 77%
CSF1R; lower = stronger binding, read-out: CSF1R %Ctrl @ 10000nM
  remaining binding at 10 µM: 23%
PIKFYVE
  inhibition at 10 µM: 99.6%
PIKFYVE; lower = stronger binding, read-out: PIKFYVE %Ctrl @ 10000nM (POC)
  remaining binding at 10 µM: 0.4%
mice; [1]
  Closed Entries: 13 and 8 and 4 and 2 and 14 and 3 and 9
  Open Entries: 8 and 9 and 7 and 13 and 15 and 5 and 10
mice; Totals (Trial 1 + Trial 2), individual animals, listed as 197, in s
  Time Closed: 299 and 472 and 180 and 74 and 440 and 274 and 198 and 409
mice; Totals (Trial 1 + Trial 2), individual animals, listed as 197, in s (unit assumed)
  Time Open: 301 and 128 and 420 and 526 and 160 and 326 and 402 and 191
mice; Totals, group average
  Closed Entries AVG: 8.25
  Open Entries AVG: 9.5
mice; Totals, group average, in s
  Time Closed AVG: 293.25
  Time Open AVG: 306.75
mice; Trial 1, group average
  Closed Entries AVG: 3.75
  Open Entries AVG: 6.5
mice; Trial 1, group average, in s
  Time Closed AVG: 86.375
  Time Open AVG: 213.625
mice; [2]
  Closed Entries: 3 and 4 and 1 and 8 and 0 and 7
  Open Entries: 5 and 6 and 8 and 4 and 11 and 1 and 9
mice; Trial 1, individual animals, listed as 197, in s
  Time Closed: 60 and 208 and 48 and 55 and 163 and 41 and 0 and 116
mice; Trial 1, individual animals, listed as 197, in s (unit assumed)
  Time Open: 240 and 92 and 252 and 245 and 137 and 259 and 300 and 184
mice; Trial 2, group average
  Closed Entries AVG: 4.5
  Open Entries AVG: 3
mice; Trial 2, group average, in s
  Time Closed AVG: 206.875
  Time Open AVG: 93.125
mice; [3]
  Closed Entries: 10 and 4 and 1 and 5 and 3 and 2
  Open Entries: 3 and 1 and 2 and 7 and 4
mice; Trial 2, individual animals, listed as 197, in s
  Time Closed: 239 and 264 and 132 and 19 and 277 and 233 and 198 and 293
mice; Trial 2, individual animals, listed as 197, in s (unit assumed)
  Time Open: 61 and 36 and 168 and 281 and 23 and 67 and 102 and 7
mice; elevated plus maze, group average
  Time/Entry AVG: 8.7983
mice; elevated plus maze, group average of totals
  Open Entries AVG: 14.5714
mice; elevated plus maze, group average of totals, in s
  Time Open AVG: 96.8
mice; elevated plus maze, total time open / total open entries, one value per mouse, listed as 197
  Time/Entry: 3.925 and 5.671 and 12.2 and 2.561 and 11.6778 and 13.5375 and 12.015
mice; elevated plus maze, totals listed by treatment group, one value per mouse, listed as 197
  Open Entries: 12 and 7 and 2 and 44 and 9 and 8 and 20
mice; [4]
  Totals Closed Entries: 22 and 15 and 11 and 38 and 10 and 3 and 12
  Totals Open Entries: 9 and 8 and 20 and 12 and 7 and 2 and 44
mice; elevated plus maze, trial 1 + trial 2, one value per mouse, listed as 197, in s
  Totals Time Open: 105.1 and 108.3 and 240.3 and 47.1 and 39.7 and 24.4 and 112.7
mice; elevated plus maze, trial 1 + trial 2, one value per mouse, listed as 197, in s (unit assumed)
  Totals Time Closed: 346 and 410.7 and 291.7 and 404.6 and 493.6 and 547.6 and 346.3
mice; [5]
  Trial 1 Closed Entries: 17 and 7 and 6 and 31 and 5 and 2 and 8
  Trial 1 Open Entries: 6 and 8 and 12 and 10 and 1 and 15
mice; elevated plus maze, trial 1, one value per mouse, listed as 197, in s (unit assumed)
  Trial 1 Time Closed: 123.7 and 123.9 and 82.1 and 166.6 and 229.4 and 269.8 and 138
mice; [6]
  Trial 2 Closed Entries: 5 and 8 and 7 and 1 and 4
  Trial 2 Open Entries: 3 and 0 and 8 and 2 and 1 and 29
mice; elevated plus maze, trial 2, one value per mouse, listed as 197, in s
  Trial 2 Time Open: 39.9 and 0 and 56.7 and 15.1 and 0.5 and 14.1 and 49
mice; elevated plus maze, trial 2, one value per mouse, listed as 197, in s (unit assumed)
  Trial 2 Time Closed: 222.3 and 286.8 and 209.6 and 238 and 264.2 and 277.8 and 208.3
mice; group average
  Time/Entry AVG: 38.3997
